{"source": "patent US12534444B2", "about": "“Treatment of cancer/inhibition of metastasis” (Celex Oncology Innovations Limited, priority 2010, dated 2026)", "key": {"Mat-LyLu cells [1]": {"tested_on": "Mat-LyLu cells", "test": "Cell growth (proliferation) assay (MTT)", "type": "cell-based, rat", "protocol": "(§1) Cells were plated at 2×10^4 cells/ml in 24-well plates (Becton-Dickinson) and allowed to settle overnight. The cells were then treated for the required time of incubation (24 hours+), with medium changes every 24 hours. At the end of the treatment, the medium was removed, and this was followed by the colorimetric 3-[4,5-dimethylthiazol-2-yl]-2,5-diphenyltetrazolium bromide (MTT) assay (Grimes et al., 1995). Briefly, 0.1 ml MTT (5 mg/ml made up in the growth medium) and 0.4 ml growth medium was added in each well and the plate was incubated for 3-4 hours at 37° C. The medium was then removed from the chambers and replaced with 0.5 ml dimethyl sulfoxide (DMSO) and 0.063 ml glycine buffer (0.1 M glycine and 0.1 M NaCl; pH 10.5). Absorbance at 570 nm was determined 15 minutes after the addition of the glycine buffer. Results were calculated as means of nine repeats of each of the treatment vs. control spectrophotometer readings from individual invasion wells.\n(§2) With the exception of single cell adhesion tests, which are discussed in the following paragraph, experiments were carried out under either; • (i) normal normoxic conditions ([…], 5% carbon dioxide), or • (ii) following 24 hours hypoxic pre-treatment (2% O2, 5% CO2, 93% N2) continued during the assays."}, "MDA-MB-231 cells [2]": {"tested_on": "MDA-MB-231 cells", "test": "Cell growth (proliferation) assay (MTT)", "type": "cell-based, human", "settings": "Normoxia", "protocol": "as §1, §2"}, "MDA-MB-231 cells [3]": {"tested_on": "MDA-MB-231 cells", "test": "Lateral motility assay (wound-heal / scratch)", "type": "cell-based, human", "protocol": "This assay was used to represent the “free” motility of cancer cells during local spreading. FIG. 5(a) is a plan view from above of a cell culture dish 501 having a semi-confluent layer of cells 502 on its surface, the cells being in an aqueous medium 503.\nIn order to determine lateral motility, a “wound-heal (“scratch”)” test was carried out, in which a scratch 504 of ˜0.5 mm was made through the layer of cells, as shown in FIG. 5(b) which is a side sectional view of the cell culture dish.\nDuring the period of 24 hours following the formation of the scratch, the cells moved into the gap.\nFIGS. 5(c) and 5(d) are schematic plan views of the cell culture dish 501 at time t=zero when the width of the scratch 504 is w0 and time t=24 hours when the width of the scratch 504 is w24, respectively.\nas §2"}, "Mat-LyLu cells [4]": {"tested_on": "Mat-LyLu cells", "test": "Cell viability assay (trypan blue)", "type": "cell-based, rat", "protocol": "Cells were seeded at a density of 5×10^4 cells/ml in 35 mm Falcon tissue culture dishes. After treatment with a given drug, the medium was removed and replaced with 800 μl of growth medium and 200 μl 0.4% trypan blue (Sigma, Dorset, UK) and incubated for 10 minutes in the incubator. The trypan blue was removed and the cells were washed once with 3 ml growth medium. For each treatment, cells from 30 random fields of view were counted under 100× magnification. The number of dead cells, stained blue, was counted in each field of view. The data were expressed as percentages of living cells out of the total number of cells in given fields of view. The percentages were averaged and differences between control and treatment were compared from at least three independent experiments.\nas §2"}, "MDA-MB-231 cells [5]": {"tested_on": "MDA-MB-231 cells", "test": "Transverse migration assay (Transwell)", "type": "cell-based, human", "protocol": "This assay was used to represent the ability of cells to migrate as they intra/extravasate. […] The insert 602 has a migration filter membrane 605 in its base with 8 μm pores 606 extending therethrough.\nCells 607 were plated at a density of 2×10^4/ml on the filter membrane 605 and placed under a growth medium 608 containing 1% foetal bovine serum (FBS). A chemotactic gradient was created across the filter membrane 605 by placing growth medium 609 containing 10% FBS in the lower section 604 of the chamber.\nCells were allowed to migrate across the filter membrane 605 over a period of 24 hours, cells migrating and adhering to the underside of the filter membrane 605.\nAt the end of each assay, non-migrated cells were removed from the upper surface of the insert 602 with two different swabs\nThe number of cells migrating to the underside of the insert 602 was determined using crystal violet staining. Migrated cells were fixed for 15 minutes with ice-cold methanol. Then 0.5% crystal violet (in 25% methanol) was added for 15 minutes. The inserts were swabbed again and then washed in water and allowed to dry. Cells were then counted using twelve separate fields of view per insert (×200 magnification).\nas §2"}}, "data": [{"smiles": "Nc1nc2ccc(OC(F)(F)F)cc2s1", "note": "[riluzole]", "values": [{"measurement": "cell proliferation with increasing concentration", "setting": "Mat-LyLu cells [1]; 3 μM, 5 μM, 10 μM and 30 μM, 24 hours, normoxia and hypoxia (2% O2)", "value": "decreased cell proliferation dose dependently under both normoxia and hypoxia; the effect was greater under hypoxia"}, {"measurement": "PROLIFERATION (24 hours)", "setting": "Mat-LyLu cells [1]; Hypoxia, 3 μM", "value": "no effect"}, {"measurement": "PROLIFERATION (24 hours)", "setting": "Mat-LyLu cells [1]; Hypoxia, 5 μM", "value": "tail off"}, {"measurement": "PROLIFERATION (24 hours)", "setting": "Mat-LyLu cells [1]; Hypoxia, 10 μM", "value": "tail off"}, {"measurement": "PROLIFERATION (24 hours)", "setting": "Mat-LyLu cells [1]; Hypoxia, 30 μM", "value": "tail off"}, {"measurement": "PROLIFERATION (24 hours)", "setting": "Mat-LyLu cells [1]; Normoxia, 3 μM", "value": "no effect"}, {"measurement": "PROLIFERATION (24 hours)", "setting": "Mat-LyLu cells [1]; Normoxia, 5 μM", "value": "tail off"}, {"measurement": "PROLIFERATION (24 hours)", "setting": "Mat-LyLu cells [1]; Normoxia, 10 μM", "value": "tail off"}, {"measurement": "PROLIFERATION (24 hours)", "setting": "Mat-LyLu cells [1]; Normoxia, 30 μM", "value": "tail off"}, {"measurement": "PROLIFERATION (24 hours)", "setting": "MDA-MB-231 cells [2]; 1 μM", "value": "no effect"}, {"measurement": "PROLIFERATION (24 hours)", "setting": "MDA-MB-231 cells [2]; 10 μM", "value": "no effect"}, {"measurement": "PROLIFERATION (24 hours)", "setting": "MDA-MB-231 cells [2]; 100 μM", "value": "reduced the proliferation of the cells in a statistically significant way"}, {"measurement": "PROLIFERATION (24 hours)", "setting": "MDA-MB-231 cells [2]; 100 μM, listed as RILUZOLE", "value": "tail off"}, {"measurement": "growth (number of cells)", "setting": "MDA-MB-231 cells [2]; 100 μM, 48 hours", "value": "reduced the proliferation of the cells in a statistically significant way"}, {"measurement": "lateral motility with increasing concentration", "setting": "MDA-MB-231 cells [3]; 1 μM, 10 μM and 100 μM, normoxia and hypoxia", "value": "reduced the lateral motility of the cells; the effect was greater under hypoxia"}, {"measurement": "LATERAL MOTILITY", "setting": "MDA-MB-231 cells [3]; Hypoxia, 1 μM", "value": "decreased"}, {"measurement": "LATERAL MOTILITY", "setting": "MDA-MB-231 cells [3]; Hypoxia, 10 μM", "value": "decreased"}, {"measurement": "LATERAL MOTILITY", "setting": "MDA-MB-231 cells [3]; Hypoxia, 100 μM", "value": "decreased"}, {"measurement": "LATERAL MOTILITY", "setting": "MDA-MB-231 cells [3]; Normoxia, 1 μM", "value": "no effect"}, {"measurement": "LATERAL MOTILITY", "setting": "MDA-MB-231 cells [3]; Normoxia, 10 μM", "value": "decreased"}, {"measurement": "LATERAL MOTILITY", "setting": "MDA-MB-231 cells [3]; Normoxia, 100 μM", "value": "decreased"}, {"measurement": "CELL VIABILITY", "setting": "Mat-LyLu cells [4]; Hypoxia, 1 μM", "value": "no effect"}, {"measurement": "CELL VIABILITY", "setting": "Mat-LyLu cells [4]; Hypoxia, 10 μM, 24 h", "value": "no effect"}, {"measurement": "CELL VIABILITY", "setting": "Mat-LyLu cells [4]; Hypoxia, 10 μM, 24 h, listed as RILUZOLE", "value": "cell death"}, {"measurement": "CELL VIABILITY", "setting": "Mat-LyLu cells [4]; Hypoxia, 30 μM, 24 h", "value": "no effect"}, {"measurement": "CELL VIABILITY", "setting": "Mat-LyLu cells [4]; Hypoxia, 30 μM, 24 h, listed as RILUZOLE", "value": "cell death"}, {"measurement": "CELL VIABILITY", "setting": "Mat-LyLu cells [4]; Hypoxia, 100 μM, 24 h", "value": "no effect"}, {"measurement": "CELL VIABILITY", "setting": "Mat-LyLu cells [4]; Hypoxia, 100 μM, 24 h, listed as RILUZOLE", "value": "cell death"}, {"measurement": "CELL VIABILITY", "setting": "Mat-LyLu cells [4]; Normoxia, 10 μM, 24 h", "value": "no effect"}, {"measurement": "CELL VIABILITY", "setting": "Mat-LyLu cells [4]; Normoxia, 30 μM, 24 h", "value": "no effect"}, {"measurement": "CELL VIABILITY", "setting": "Mat-LyLu cells [4]; Normoxia, 100 μM, 24 h", "value": "no effect"}, {"measurement": "TRANSVERSE MIGRATION", "setting": "MDA-MB-231 cells [5]; Hypoxia, 1 μM", "value": "reduced the transverse migration in a statistically significant way"}, {"measurement": "TRANSVERSE MIGRATION", "setting": "MDA-MB-231 cells [5]; Hypoxia, 1 μM, listed as RILUZOLE", "value": "decreased"}, {"measurement": "TRANSVERSE MIGRATION", "setting": "MDA-MB-231 cells [5]; Hypoxia, 10 μM", "value": "reduced the transverse migration in a statistically significant way"}, {"measurement": "TRANSVERSE MIGRATION", "setting": "MDA-MB-231 cells [5]; Hypoxia, 10 μM, listed as RILUZOLE", "value": "decreased"}, {"measurement": "TRANSVERSE MIGRATION", "setting": "MDA-MB-231 cells [5]; Hypoxia, 100 μM", "value": "reduced the transverse migration in a statistically significant way"}, {"measurement": "TRANSVERSE MIGRATION", "setting": "MDA-MB-231 cells [5]; Hypoxia, 100 μM, listed as RILUZOLE", "value": "decreased"}, {"measurement": "TRANSVERSE MIGRATION", "setting": "MDA-MB-231 cells [5]; Normoxia, 1 μM", "value": "reduced the transverse migration of the cells in a statistically significant way"}, {"measurement": "TRANSVERSE MIGRATION", "setting": "MDA-MB-231 cells [5]; Normoxia, 1 μM, listed as RILUZOLE", "value": "decreased"}, {"measurement": "TRANSVERSE MIGRATION", "setting": "MDA-MB-231 cells [5]; Normoxia, 10 μM", "value": "no effect"}, {"measurement": "TRANSVERSE MIGRATION", "setting": "MDA-MB-231 cells [5]; Normoxia, 100 μM", "value": "reduced the transverse migration of the cells in a statistically significant way"}, {"measurement": "TRANSVERSE MIGRATION", "setting": "MDA-MB-231 cells [5]; Normoxia, 100 μM, listed as RILUZOLE", "value": "decreased"}]}]}
